# Assay results: US9695155B2, “Herbicidal substituted pyrimidinyloxy benzene compounds” (E. I. DU PONT DE NEMOURS AND COMPANY, priority 2013, dated 2017)
# Assays:
# [1] = tested on: wheat, winter; test: Test C postemergence; format: in vivo, Triticum aestivum
# Procedure, shortened: (§1)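 Seeds are planted in blended loam soil and sand and treated preemergence, while seedlings in a peat moss/vermiculite medium receive postemergence sprays at 2 to 18 cm height. All plants stay in the greenhouse for 13 to 15 days before visual comparison with controls on a 0–100 scale.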
# [2] = tested on: yellow nutsedge; test: Test C postemergence; format: in vivo, Cyperus esculentus
# Procedure, shortened: as §1
# [3] = tested on: corn; test: Test C preemergence; format: in vivo, Zea mays; conditions: Zea mays, pre-emergence
# Procedure, shortened: as §1
# [4] = tested on: corn; test: Test A postemergence; format: in vivo, Zea mays; conditions: Zea mays, post-emergence, 240 h, 0 to 100 scale, 0 no effect, 100 complete control
# Procedure, shortened: (§2)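 Compounds in non-phytotoxic solvent with surfactant applied as soil spray preemergence, or postemergence to plants 2-10 cm at one- to two-leaf stage, in loam/sand. After approximately 10 days in greenhouse, injury rated visually versus untreated controls, 0 (no effect) to 100 (complete control).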
# [5] = tested on: yellow nutsedge; test: Test C preemergence; format: in vivo, Cyperus esculentus; conditions: Cyperus, pre-emergence
# Procedure, shortened: as §1
# [6] = tested on: Italian ryegrass; test: Test C preemergence; format: in vivo, Lolium multiflorum; conditions: Lolium multiflorum, pre-emergence
# Procedure, shortened: as §1
# [7] = tested on: giant foxtail; test: Test C postemergence; format: in vivo, Setaria faberii; conditions: Setaria faberi, post-emergence
# Procedure, shortened: as §1
# [8] = tested on: wheat, winter; test: Test C preemergence; format: in vivo, Triticum aestivum; conditions: Triticum aestivum, pre-emergence
# Procedure, shortened: as §1
# [9] = tested on: johnsongrass; test: Test C postemergence; format: in vivo, Sorghum halepense
# Procedure, shortened: as §1
# [10] = tested on: barnyardgrass; test: Test A postemergence; format: in vivo, Echinochloa crus-galli; conditions: Echinochloa crus-galli, post-emergence, 240 h, 0 to 100 scale, 0 no effect, 100 complete control, read-out: Plant response rating, Barnyardgrass
# Procedure, shortened: as §2
# [11] = tested on: large (Lg) crabgrass; test: Test C postemergence; format: in vivo, Digitaria sanguinalis; conditions: Digitaria sanguinalis, post-emergence
# Procedure, shortened: as §1
# [12] = tested on: Italian ryegrass; test: Test A preemergence; format: in vivo, Lolium multiflorum
# Procedure, shortened: as §2
# [13] = tested on: corn; test: Test C postemergence; format: in vivo, Zea mays; conditions: Zea mays, post-emergence
# Procedure, shortened: as §1
# [14] = tested on: ragweed; test: Test A preemergence; format: in vivo, Ambrosia elatior
# Procedure, shortened: as §2
# [15] = tested on: ragweed; test: Test A postemergence; format: in vivo, Ambrosia elatior; conditions: 0 to 100 scale, 0 no effect, 100 complete control
# Procedure, shortened: as §2
# [16] = tested on: johnsongrass; test: Test C preemergence; format: in vivo, Sorghum halepense; conditions: Sorghum halepense, pre-emergence
# Procedure, shortened: as §1
# [17] = 31 g ai/ha, postemergence, visual rating, scale 0 to 100 (0 no effect, 100 complete control), 13 to 15 days
# [18] = 31 g ai/ha, 0 to 100 scale where 0 is no effect and 100 is complete control, visual, approximately 10 days
smiles,measurement,setting,value
"N#Cc1cccc(Oc2ncc(Cl)cn2)c1-n1cc(C(F)F)cn1 [Compound 253, 3-(5-chloropyrimidin-2-yl)oxy-2-[4-(difluoromethyl)-1H-pyrazol-1-yl]benzonitrile]",Wheat plant response rating,[1]; [17],0
same,plant injury at 16 g/ha,"[1]; Triticum aestivum, post-emergence, 16 g ai/ha, postemergence, 0 is no effect, 100 is complete control, read-out: Plant response rating (0 to 100), Wheat",0%
same,plant injury at 125 g/ha,"[1]; Triticum aestivum, post-emergence, 125 g ai/ha, postemergence, visual rating, scale 0 to 100 (0 no effect, 100 complete control), read-out: Plant response rating, Wheat",0%
same,plant injury at 62 g/ha,"[1]; Triticum aestivum, post-emergence, Postemergence, 62 g ai/ha, scale 0 to 100 (0 no effect, 100 complete control), 13 to 15 days, read-out: Plant response rating, Wheat",0%
same,"Nutsedge, Yellow plant response rating",[2]; [17],5
same,pest or weed control at 16 g/ha,"[2]; Cyperus, post-emergence, 16 g ai/ha, postemergence, 0 is no effect, 100 is complete control, read-out: Plant response rating (0 to 100), Nutsedge, Yellow",5%
same,pest or weed control at 125 g/ha,"[2]; Cyperus, post-emergence, 125 g ai/ha, postemergence, visual rating, scale 0 to 100 (0 no effect, 100 complete control), read-out: Plant response rating, Nutsedge, Yellow",5%
same,pest or weed control at 62 g/ha,"[2]; Cyperus, post-emergence, Postemergence, 62 g ai/ha, scale 0 to 100 (0 no effect, 100 complete control), 13 to 15 days, read-out: Plant response rating, Nutsedge, Yellow",5%
same,plant injury at 16 g/ha,"[3]; 16 g ai/ha, preemergence, scale 0 to 100 (0 no effect, 100 complete control), read-out: Corn plant response rating",0%
same,plant injury at 125 g/ha,"[3]; 125 g ai/ha, preemergence, scale 0 (no effect) to 100 (complete control), read-out: Corn plant response rating",90%
same,"Corn plant response rating (crop injury, 0 = no effect, 100 = complete kill) at 62 g/ha","[3]; Preemergence, 62 g ai/ha, scale 0 to 100, 0 no effect, 100 complete control",35%
same,"Corn plant response rating (crop injury, 0 = no effect, 100 = complete kill) at 31 g/ha",[4]; 31 g ai/ha,20%
same,"Corn plant response rating (crop injury, 0 = no effect, 100 = complete kill) at 125 g/ha",[4]; 125 g ai/ha,60%
same,pest or weed control at 16 g/ha,"[5]; 16 g ai/ha, preemergence, scale 0 to 100 (0 no effect, 100 complete control), read-out: Nutsedge, Yellow plant response rating",0%
same,pest or weed control at 125 g/ha,"[5]; 125 g ai/ha, preemergence, scale 0 (no effect) to 100 (complete control), read-out: Nutsedge, Yellow plant response rating",65%
same,pest or weed control at 62 g/ha,"[5]; Preemergence, 62 g ai/ha, scale 0 to 100, 0 no effect, 100 complete control, read-out: Plant response rating, Nutsedge, Yellow",20%
same,pest or weed control at 16 g/ha,"[6]; 16 g ai/ha, preemergence, scale 0 to 100 (0 no effect, 100 complete control), read-out: Ryegrass, Italian plant response rating",0%
same,pest or weed control at 125 g/ha,"[6]; 125 g ai/ha, preemergence, scale 0 (no effect) to 100 (complete control), read-out: Ryegrass, Italian plant response rating",80%
same,pest or weed control at 62 g/ha,"[6]; Preemergence, 62 g ai/ha, scale 0 to 100, 0 no effect, 100 complete control, read-out: Plant response rating, Ryegrass, Italian",35%
same,pest or weed control at 16 g/ha,"[7]; 16 g ai/ha, postemergence, 0 is no effect, 100 is complete control, read-out: Plant response rating (0 to 100), Foxtail, Giant",10%
same,pest or weed control at 31 g/ha,"[7]; 31 g ai/ha, postemergence, visual rating, scale 0 to 100 (0 no effect, 100 complete control), 13 to 15 days, read-out: Foxtail, Giant plant response rating",45%
same,pest or weed control at 125 g/ha,"[7]; 125 g ai/ha, postemergence, visual rating, scale 0 to 100 (0 no effect, 100 complete control), read-out: Plant response rating, Foxtail, Giant",20%
same,pest or weed control at 62 g/ha,"[7]; Postemergence, 62 g ai/ha, scale 0 to 100 (0 no effect, 100 complete control), 13 to 15 days, read-out: Plant response rating, Foxtail, Giant",25%
same,plant injury at 16 g/ha,"[8]; 16 g ai/ha, preemergence, scale 0 to 100 (0 no effect, 100 complete control), read-out: Wheat plant response rating",0%
same,plant injury at 125 g/ha,"[8]; 125 g ai/ha, preemergence, scale 0 (no effect) to 100 (complete control), read-out: Wheat plant response rating",60%
same,plant injury at 62 g/ha,"[8]; Preemergence, 62 g ai/ha, scale 0 to 100, 0 no effect, 100 complete control, read-out: Plant response rating, Wheat",0%
same,Johnsongrass plant response rating,[9]; [17],5
same,pest or weed control at 16 g/ha,"[9]; Sorghum halepense, post-emergence, 16 g ai/ha, postemergence, 0 is no effect, 100 is complete control, read-out: Plant response rating (0 to 100), Johnsongrass",0%
same,pest or weed control at 125 g/ha,"[9]; Sorghum halepense, post-emergence, 125 g ai/ha, postemergence, visual rating, scale 0 to 100 (0 no effect, 100 complete control), read-out: Plant response rating, Johnsongrass",10%
same,pest or weed control at 62 g/ha,"[9]; Sorghum halepense, post-emergence, Postemergence, 62 g ai/ha, scale 0 to 100 (0 no effect, 100 complete control), 13 to 15 days, read-out: Plant response rating, Johnsongrass",5%
same,pest or weed control at 31 g/ha,[10]; 31 g ai/ha,20%
same,pest or weed control at 125 g/ha,[10]; 125 g ai/ha,100%
same,pest or weed control at 16 g/ha,"[11]; 16 g ai/ha, postemergence, 0 is no effect, 100 is complete control, read-out: Plant response rating (0 to 100), Crabgrass, Large",5%
same,pest or weed control at 31 g/ha,"[11]; 31 g ai/ha, postemergence, visual rating, scale 0 to 100 (0 no effect, 100 complete control), 13 to 15 days, read-out: Crabgrass, Large plant response rating",5%
same,pest or weed control at 125 g/ha,"[11]; 125 g ai/ha, postemergence, visual rating, scale 0 to 100 (0 no effect, 100 complete control), read-out: Plant response rating, Crabgrass, Large",20%
same,pest or weed control at 62 g/ha,"[11]; Postemergence, 62 g ai/ha, scale 0 to 100 (0 no effect, 100 complete control), 13 to 15 days, read-out: Plant response rating, Crabgrass, Large",15%
same,"Plant response rating, Ryegrass, Italian",[12]; [18],20
same,"Ryegrass, Italian plant response rating (0 to 100 scale)",[12]; 125 g ai/ha,20
same,plant injury at 16 g/ha,"[13]; 16 g ai/ha, postemergence, 0 is no effect, 100 is complete control, read-out: Plant response rating (0 to 100), Corn",5%
same,plant injury at 31 g/ha,"[13]; 31 g ai/ha, postemergence, visual rating, scale 0 to 100 (0 no effect, 100 complete control), 13 to 15 days, read-out: Corn plant response rating",5%
same,"Corn plant response rating (crop injury, 0 = no effect, 100 = complete kill) at 125 g/ha","[13]; 125 g ai/ha, postemergence, visual rating, scale 0 to 100 (0 no effect, 100 complete control)",25%
same,"Corn plant response rating (crop injury, 0 = no effect, 100 = complete kill) at 62 g/ha","[13]; Postemergence, 62 g ai/ha, scale 0 to 100 (0 no effect, 100 complete control), 13 to 15 days",5%
same,"Plant response rating, Ragweed",[14]; [18],20
same,Ragweed plant response rating (0 to 100 scale),[14]; 125 g ai/ha,80
same,"Plant response rating, Ragweed",[15]; 31 g ai/ha,20
same,"Plant response rating, Ragweed",[15]; 125 g ai/ha,80
same,pest or weed control at 16 g/ha,"[16]; 16 g ai/ha, preemergence, scale 0 to 100 (0 no effect, 100 complete control), read-out: Johnsongrass plant response rating",15%
same,pest or weed control at 125 g/ha,"[16]; 125 g ai/ha, preemergence, scale 0 (no effect) to 100 (complete control), read-out: Johnsongrass plant response rating",100%
same,pest or weed control at 62 g/ha,"[16]; Preemergence, 62 g ai/ha, scale 0 to 100, 0 no effect, 100 complete control, read-out: Plant response rating, Johnsongrass",60%
